Results as given in patent US20210214758A1, “METHODS AND TOOLS FOR DETERMINING CLONAL RELATEDNESS AND PREDICTING CLONAL TRAITS” (priority 2018, published 2021).

Test system: Klebsiella isolates
Experiment: Antibiotic susceptibility of Klebsiella clinical isolates per 7-SNP clonotype (Lookup Table 1; disk diffusion)
Assay type: cell-based, Klebsiella spp.
Conditions: CT 000
Protocol: In further embodiments, the Lookup Table is Lookup Table 1. The information contained in Lookup Table 1 below was obtained from urine specimens from patients with Klebsiella infections from several clinics within different regions of the United States. CT=clonotypes determined using a 7-SNP combination: phoE54; rpoB130; infB279; mdh315; phoE336; phoE354; and mdh429.
Next, antibiotic resistance was determined for all 387 Klebsiella isolates in the discovery set. Antibiotic testing was carried out according to the standard disk diffusion method as described in the Clinical and Laboratory Standards Institute (M100 Performance Standards for Antimicrobial Susceptibility Testing, 27th Edition, 2017). […] Since almost all Klebsiella isolates are known to be resistant to AMP and sensitive to IMI, TET is not used for treatment of urinary tract infections, and ESBL production is partially reflected in resistance to CTR, these antibiotics were not included for further analysis.
To aid in clinical decision-making and to translate clonotype information to treatment selection, Lookup Table 1 was generated. […] The information contained in Lookup Table 1 was obtained from urine specimens from patients with Klebsiella infections from several clinics within different regions of the United States. Indications of allowance or non-recommendation were determined based on a 20% resistance threshold to the indicated antibiotic; i.e., the antibiotic is recommended when more than 80% of the tested isolates within the indicated clonotype were susceptible to the indicated antibiotic, and was cautioned against when less than 80% of the isolates were susceptible to the antibiotic.

Substance	susceptibility, %
amoxicillin/clavulanate [AMC]	92%
trimethoprim/sulfamethoxazole [TS]	87%

Same assay, conditions: CT 001

Substance	susceptibility, %
amoxicillin/clavulanate [AMC]	100%
trimethoprim/sulfamethoxazole [TS]	100%

Same assay, conditions: CT 010

Substance	susceptibility, %
amoxicillin/clavulanate [AMC]	100%
trimethoprim/sulfamethoxazole [TS]	100%

Same assay, conditions: CT 011

Substance	susceptibility, %
amoxicillin/clavulanate [AMC]	91%
trimethoprim/sulfamethoxazole [TS]	91%

Same assay, conditions: CT 031

Substance	susceptibility, %
amoxicillin/clavulanate [AMC]	67%
trimethoprim/sulfamethoxazole [TS]	67%

Same assay, conditions: CT 040

Substance	susceptibility, %
amoxicillin/clavulanate [AMC]	75%
trimethoprim/sulfamethoxazole [TS]	25%

Same assay, conditions: CT 050

Substance	susceptibility, %
amoxicillin/clavulanate [AMC]	90%
trimethoprim/sulfamethoxazole [TS]	86%

Same assay, conditions: CT 051

Substance	susceptibility, %
amoxicillin/clavulanate [AMC]	90%
trimethoprim/sulfamethoxazole [TS]	85%

Same assay, conditions: CT 071

Substance	susceptibility, %
amoxicillin/clavulanate [AMC]	80%
trimethoprim/sulfamethoxazole [TS]	60%

Same assay, conditions: CT 100

Substance	susceptibility, %
amoxicillin/clavulanate [AMC]	86%
trimethoprim/sulfamethoxazole [TS]	100%

Same assay, conditions: CT 110

Substance	susceptibility, %
amoxicillin/clavulanate [AMC]	100%
trimethoprim/sulfamethoxazole [TS]	100%

Same assay, conditions: CT 111

Substance	susceptibility, %
amoxicillin/clavulanate [AMC]	90%
trimethoprim/sulfamethoxazole [TS]	90%

Same assay, conditions: CT 130

Substance	susceptibility, %
amoxicillin/clavulanate [AMC]	98%
trimethoprim/sulfamethoxazole [TS]	92%

Same assay, conditions: CT 131

Substance	susceptibility, %
amoxicillin/clavulanate [AMC]	69%
trimethoprim/sulfamethoxazole [TS]	72%

Same assay, conditions: CT 141

Substance	susceptibility, %
amoxicillin/clavulanate [AMC]	100%
trimethoprim/sulfamethoxazole [TS]	100%

Same assay, conditions: CT 150

Substance	susceptibility, %
amoxicillin/clavulanate [AMC]	87%
trimethoprim/sulfamethoxazole [TS]	73%

Same assay, conditions: CT 151

Substance	susceptibility, %
amoxicillin/clavulanate [AMC]	78%
trimethoprim/sulfamethoxazole [TS]	65%

Same assay, conditions: CT 160

Substance	susceptibility, %
amoxicillin/clavulanate [AMC]	100%
trimethoprim/sulfamethoxazole [TS]	0%

Same assay, conditions: CT 170

Substance	susceptibility, %
amoxicillin/clavulanate [AMC]	96%
trimethoprim/sulfamethoxazole [TS]	83%

Same assay, conditions: CT 171

Substance	susceptibility, %
amoxicillin/clavulanate [AMC]	92%
trimethoprim/sulfamethoxazole [TS]	92%

Same assay, conditions: CT 200

Substance	susceptibility, %
amoxicillin/clavulanate [AMC]	69%
trimethoprim/sulfamethoxazole [TS]	77%

Same assay, conditions: CT 201

Substance	susceptibility, %
amoxicillin/clavulanate [AMC]	89%
trimethoprim/sulfamethoxazole [TS]	79%

Same assay, conditions: CT 210

Substance	susceptibility, %
amoxicillin/clavulanate [AMC]	71%
trimethoprim/sulfamethoxazole [TS]	95%

Same assay, conditions: CT 211

Substance	susceptibility, %
amoxicillin/clavulanate [AMC]	90%
trimethoprim/sulfamethoxazole [TS]	91%

Same assay, conditions: CT 230

Substance	susceptibility, %
amoxicillin/clavulanate [AMC]	100%
trimethoprim/sulfamethoxazole [TS]	100%

Same assay, conditions: CT 231

Substance	susceptibility, %
amoxicillin/clavulanate [AMC]	100%
trimethoprim/sulfamethoxazole [TS]	100%

Same assay, conditions: CT 240

Substance	susceptibility, %
amoxicillin/clavulanate [AMC]	0%
trimethoprim/sulfamethoxazole [TS]	100%

Same assay, conditions: CT 241

Substance	susceptibility, %
amoxicillin/clavulanate [AMC]	100%
trimethoprim/sulfamethoxazole [TS]	100%

Same assay, conditions: CT 250

Substance	susceptibility, %
amoxicillin/clavulanate [AMC]	100%
trimethoprim/sulfamethoxazole [TS]	80%

Same assay, conditions: CT 251

Substance	susceptibility, %
amoxicillin/clavulanate [AMC]	93%
trimethoprim/sulfamethoxazole [TS]	80%

Same assay, conditions: CT 271

Substance	susceptibility, %
amoxicillin/clavulanate [AMC]	96%
trimethoprim/sulfamethoxazole [TS]	75%

Same assay, conditions: CT 300

Substance	susceptibility, %
amoxicillin/clavulanate [AMC]	100%
trimethoprim/sulfamethoxazole [TS]	0%

Same assay, conditions: CT 301

Substance	susceptibility, %
amoxicillin/clavulanate [AMC]	96%
trimethoprim/sulfamethoxazole [TS]	76%

Same assay, conditions: CT 310

Substance	susceptibility, %
amoxicillin/clavulanate [AMC]	80%
trimethoprim/sulfamethoxazole [TS]	100%

Same assay, conditions: CT 311

Substance	susceptibility, %
amoxicillin/clavulanate [AMC]	80%
trimethoprim/sulfamethoxazole [TS]	65%

Same assay, conditions: CT 330

Substance	susceptibility, %
amoxicillin/clavulanate [AMC]	95%
trimethoprim/sulfamethoxazole [TS]	55%

Same assay, conditions: CT 331

Substance	susceptibility, %
amoxicillin/clavulanate [AMC]	86%
trimethoprim/sulfamethoxazole [TS]	76%

Same assay, conditions: CT 350

Substance	susceptibility, %
amoxicillin/clavulanate [AMC]	83%
trimethoprim/sulfamethoxazole [TS]	74%

Same assay, conditions: CT 351

Substance	susceptibility, %
amoxicillin/clavulanate [AMC]	92%
trimethoprim/sulfamethoxazole [TS]	84%

Same assay, conditions: CT 370

Substance	susceptibility, %
amoxicillin/clavulanate [AMC]	100%
trimethoprim/sulfamethoxazole [TS]	75%

Same assay, conditions: CT 371

Substance	susceptibility, %
amoxicillin/clavulanate [AMC]	75%
trimethoprim/sulfamethoxazole [TS]	100%

Same assay, conditions: CT 411

Substance	susceptibility, %
amoxicillin/clavulanate [AMC]	100%
trimethoprim/sulfamethoxazole [TS]	100%

Same assay, conditions: CT 450

Substance	susceptibility, %
amoxicillin/clavulanate [AMC]	100%
trimethoprim/sulfamethoxazole [TS]	83%

Same assay, conditions: CT 451

Substance	susceptibility, %
amoxicillin/clavulanate [AMC]	100%
trimethoprim/sulfamethoxazole [TS]	100%

Same assay, conditions: CT 510

Substance	susceptibility, %
amoxicillin/clavulanate [AMC]	100%
trimethoprim/sulfamethoxazole [TS]	100%

Same assay, conditions: CT 511

Substance	susceptibility, %
amoxicillin/clavulanate [AMC]	100%
trimethoprim/sulfamethoxazole [TS]	0%

Same assay, conditions: CT 530

Substance	susceptibility, %
amoxicillin/clavulanate [AMC]	93%
trimethoprim/sulfamethoxazole [TS]	45%

Same assay, conditions: CT 531

Substance	susceptibility, %
amoxicillin/clavulanate [AMC]	83%
trimethoprim/sulfamethoxazole [TS]	67%

Same assay, conditions: CT 550

Substance	susceptibility, %
amoxicillin/clavulanate [AMC]	86%
trimethoprim/sulfamethoxazole [TS]	79%

Same assay, conditions: CT 551

Substance	susceptibility, %
amoxicillin/clavulanate [AMC]	50%
trimethoprim/sulfamethoxazole [TS]	52%

Same assay, conditions: CT 570

Substance	susceptibility, %
amoxicillin/clavulanate [AMC]	75%
trimethoprim/sulfamethoxazole [TS]	75%

Same assay, conditions: CT 571

Substance	susceptibility, %
amoxicillin/clavulanate [AMC]	100%
trimethoprim/sulfamethoxazole [TS]	100%

Same assay, conditions: CT 611

Substance	susceptibility, %
amoxicillin/clavulanate [AMC]	100%
trimethoprim/sulfamethoxazole [TS]	100%

Same assay, conditions: CT 630

Substance	susceptibility, %
amoxicillin/clavulanate [AMC]	100%
trimethoprim/sulfamethoxazole [TS]	100%

Same assay, conditions: CT 650

Substance	susceptibility, %
amoxicillin/clavulanate [AMC]	91%
trimethoprim/sulfamethoxazole [TS]	83%

Same assay, conditions: CT 651

Substance	susceptibility, %
amoxicillin/clavulanate [AMC]	92%
trimethoprim/sulfamethoxazole [TS]	85%

Same assay, conditions: CT 670

Substance	susceptibility, %
amoxicillin/clavulanate [AMC]	100%
trimethoprim/sulfamethoxazole [TS]	100%

Same assay, conditions: CT 710

Substance	susceptibility, %
amoxicillin/clavulanate [AMC]	100%
trimethoprim/sulfamethoxazole [TS]	67%

Same assay, conditions: CT 730

Substance	susceptibility, %
amoxicillin/clavulanate [AMC]	60%
trimethoprim/sulfamethoxazole [TS]	45%

Same assay, conditions: CT 731

Substance	susceptibility, %
amoxicillin/clavulanate [AMC]	98%
trimethoprim/sulfamethoxazole [TS]	82%

Same assay, conditions: CT 750

Substance	susceptibility, %
amoxicillin/clavulanate [AMC]	95%
trimethoprim/sulfamethoxazole [TS]	65%

Same assay, conditions: CT 751

Substance	susceptibility, %
amoxicillin/clavulanate [AMC]	100%
trimethoprim/sulfamethoxazole [TS]	100%

Same assay, conditions: CT 771

Substance	susceptibility, %
amoxicillin/clavulanate [AMC]	100%
trimethoprim/sulfamethoxazole [TS]	86%

Same assay, conditions: CT Any Klebsiella spp.

Substance	susceptibility, %
amoxicillin/clavulanate [AMC]	87%
trimethoprim/sulfamethoxazole [TS]	80%
